One assay concerns the target T1, human full-lengt MKNK1 (Homo sapiens, UniProt Q9BUB5, T385D).
T1 construct: purchased Carna Biosciences 02-145; host or cells: insect cells (baculovirus expression system)
Kind of assay: MKNK1 kinase assay (MKNK1 TR-FRET assay). In kind it is biochemical. Conditions: ATP final conc. 10 μM, 15 min preincubation, 45 min reaction at 22° C. From the text:
MKNK1-inhibitory activity of compounds of the present invention was quantified employing the MKNK1 TR-FRET assay as described in the following paragraphs.
A recombinant fusion protein of Glutathione-S-Transferase (GST, N-terminally) and human full-lengt MKNK1 (amino acids 1-424 and T344D of accession number BAA 19885.1), expressed in insect cells using baculovirus expression system and purified via glutathione sepharose affinity chromatography, was purchased from Carna Biosciences (product no 02-145) and used as enzyme. As substrate for the kinase reaction the biotinylated peptide biotin-Ahx-IKKRKLTRRKSLKG (C-terminus in amide form) was used which can be purchased e.g. form the company Biosyntan (Berlin-Buch, Germany).
(§1) For the assay 50 nL of a 100 fold concentrated solution of the test compound in DMSO was pipetted into a black low volume 384 well microtiter plate (Greiner Bio-One, Frickenhausen, Germany), 2 μL of a solution of MKNK1 in aqueous assay buffer [50 mM HEPES pH 7.5, 5 mM magnesium chloride, 1.0 mM dithiothreitol, 0.005% (v/v) Nonidet-P40 (Sigma)] was added and the mixture was incubated for 15 min at 22° C. to allow pre-binding of the test compounds to the enzyme before the start of the kinase reaction. Then the kinase reaction was started by the addition of 3 μL of a solution of adenosine-tri-phosphate (ATP, 16.7 μM=>final conc. in the 5 μL assay volume is 10 μM) and substrate (0.1 μM=>final conc. in the 5 μL assay volume is 0.06 μM) in assay buffer and the resulting mixture was incubated for a reaction time of 45 min at 22° C. The concentration of MKNK1 was adjusted depending of the activity of the enzyme lot and was chosen appropriate to have the assay in the linear range, typical concentrations were in the range of 0.05 μg/ml. The reaction was stopped by the addition of 5 μL of a solution of TR-FRET detection reagents (5 nM streptavidine-XL665 [Cisbio Bioassays, Codolet, France] and 1 nM anti-ribosomal protein S6 (pSer236)-antibody from Invitrogen [#44921G] and 1 nM LANCE EU-W1024 labeled ProteinG [Perkin-Elmer, product no. AD0071]) in an aqueous EDTA-solution (100 mM EDTA, 0.1% (w/v) bovine serum albumin in 50 mM HEPES pH 7.5).
The resulting mixture was incubated for 1 h at 22° C. to allow the formation of complex between the phosphorylated biotinylated peptide and the detection reagents. Subsequently the amount of phosphorylated substrate was evaluated by measurement of the resonance energy transfer from the Eu-chelate to the streptavidine-XL. Therefore, the fluorescence emissions at 620 nm and 665 nm after excitation at 350 nm were measured in a TR-FRET reader, e.g. a Rubystar (BMG Labtechnologies, Offenburg, Germany) or a Viewlux (Perkin-Elmer). The ratio of the emissions at 665 nm and at […] was taken as the measure for the amount of phosphorylated substrate. The data were normalised (enzyme reaction without inhibitor=0% inhibition, all other assay components but no enzyme=100% inhibition). Usually the test compounds were tested on the same microtiterplate in 11 different concentrations in the range of 20 μM to 0.1 nM (20 μM, 5.9 μM, 1.7 μM, 0.51 μM, 0.15 μM, 44 nM, 13 nM, 3.8 nM, 1.1 nM, 0.33 nM and 0.1 nM, the dilution series prepared separately before the assay on the level of the 100 fold concentrated solutions in DMSO by serial 1:3.4 dilutions) in duplicate values for each concentration and […] were calculated by a 4 parameter fit.

The next assay has as its target T2, human full-length MKNK1 (Homo sapiens, UniProt Q9BUB5, T385D).
T2 construct: purchased Carna Biosciences 02-145; host or cells: insect cells (baculovirus expression system)
Kind of assay: MKNK1 kinase high ATP assay (TR-FRET-based). The note with it: ATP final conc. 2 mM, 15 min preincubation, 30 min reaction at 22° C. The assay is classed as biochemical. The protocol:
MKNK1 Kinase High ATP Assay
MKNK1-inhibitory activity at high ATP of compounds of the present invention after their preincubation with MKNK1 was quantified employing the TR-FRET-based MKNK1 high ATP assay as described in the following paragraphs.
A recombinant fusion protein of Glutathione-S-Transferase (GST, N-terminally) and human full-length MKNK1 (amino acids 1-424 and T344D of accession number BAA 19885.1), expressed in insect cells using baculovirus expression system and purified via glutathione sepharose affinity chromatography, was purchased from Carna Biosciences (product no 02-145) and used as enzyme. As substrate for the kinase reaction the biotinylated peptide biotin-Ahx-IKKRKLTRRKSLKG (C-terminus in amide form) was used, which can be purchased e.g. from the company Biosyntan (Berlin-Buch, Germany).
as §1, with “3.3 mM=>final” for “16.7 μM=>final”, “2 mM)” for “10 μM)”, “30” for “45”, “0.003 μg/mL.” for “0.05 μg/ml.”
The resulting mixture was incubated for 1 h at 22° C. to allow the formation of complex between the phosphorylated biotinylated peptide and the detection reagents. Subsequently the amount of phosphorylated substrate was evaluated by measurement of the resonance energy transfer from the Eu-chelate to the streptavidine-XL. Therefore, the fluorescence emissions at 620 nm and 665 nm after excitation at 350 nm were measured in a TR-FRET reader, e.g. a Rubystar (BMG Labtechnologies, Offenburg, Germany) or a Viewlux (Perkin-Elmer). The ratio of the emissions at 665 nm and at […] was taken as the measure for the amount of phosphorylated substrate. The data were normalised (enzyme reaction without inhibitor=0% inhibition, all other assay components but no enzyme=100% inhibition).
(Time-resolved FRET reads energy transfer from a long-lived donor to a nearby acceptor.)

The structures appear in SMILES notation. Where a name gives a salt, the structure may show the parent alone.

T2 sequence (Q9BUB5 1-424 isoform Q9BUB5-2 T344D): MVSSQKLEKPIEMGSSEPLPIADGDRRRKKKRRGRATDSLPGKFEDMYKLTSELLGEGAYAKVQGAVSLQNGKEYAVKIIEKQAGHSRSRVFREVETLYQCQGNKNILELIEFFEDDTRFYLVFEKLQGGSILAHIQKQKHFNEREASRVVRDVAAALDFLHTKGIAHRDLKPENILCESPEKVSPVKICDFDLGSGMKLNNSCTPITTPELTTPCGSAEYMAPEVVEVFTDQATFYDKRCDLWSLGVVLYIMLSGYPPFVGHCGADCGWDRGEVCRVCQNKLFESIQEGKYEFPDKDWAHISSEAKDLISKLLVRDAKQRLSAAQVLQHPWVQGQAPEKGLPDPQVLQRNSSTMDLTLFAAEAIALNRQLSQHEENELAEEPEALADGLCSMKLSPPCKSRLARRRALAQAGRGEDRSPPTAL
T1 sequence (Q9BUB5 1-424 isoform Q9BUB5-2 T344D): as above

`C[C@H](N)COc1ccc2ncc(-c3cc4c(OCC(C)(C)C)nccc4o3)n2n1` [Example 34, (2S)-1-({3-[4-(2,2-Dimethylpropoxy)furo[3,2-c]pyridin-2-yl]imidazo[1,2-b]-pyridazin-6-yl}oxy)propan-2-amine]: the IC50 against human full-lengt MKNK1 came to 5 nM; against human full-length MKNK1, 15 nM.

On to `COc1nccc2oc(-c3cnc4ccc(OCC5(CN)COC5)nn34)cc12` [Example 27, 1-[3-({[3-(4-Methoxyfuro[3,2-c]pyridin-2-yl)imidazo[1,2-b]pyridazin-6-yl]-oxy}methyl)oxetan-3-yl]methanamine], for which the half-inhibitory concentration (IC50) worked out at 153 nM at human full-lengt MKNK1 and 259 nM on human full-length MKNK1.

Consider `N[C@H](COc1ccc2ncc(-c3cc4cnccc4o3)n2n1)c1ccccc1` [Example 1, (1S)-2-{[3-(Furo[3,2-c]pyridin-2-yl)imidazo[1,2-b]pyridazin-6-yl]oxy}-1-phenylethanamine], for which the IC50 on human full-lengt MKNK1 was 17 nM; on human full-length MKNK1 it was 53 nM.

With `COc1nccc2oc(-c3cnc4ccc(OC[C@H](N)c5ccccc5)nn34)cc12` [Example 9, (1R)-2-{[3-(4-Methoxyfuro[3,2-c]pyridin-2-yl)imidazo[1,2-b]pyridazin-6-yl]oxy}-1-phenylethanamine], the IC50 at human full-lengt MKNK1 came to 48 nM; against human full-length MKNK1, 94 nM.

On to `CC(C)[C@H](N)COc1ccc2ncc(-c3cc4cnccc4o3)n2n1` [Example 30, (2S)-1-{[3-(Furo[3,2-c]pyridin-2-yl)imidazo[1,2-b]pyridazin-6-yl]oxy}-3-methylbutan-2-amine], for which the figures for the IC50 at human full-lengt MKNK1 and against human full-length MKNK1 were 137 nM and 309 nM, respectively.

On to `COc1nccc2oc(-c3cnc4ccc(OC[C@@H](N)[C@@H](C)OCc5ccccc5)nn34)cc12` [Example 10, (2R,3R)-3-(Benzyloxy)-1-{[3-(4-methoxyfuro[3,2-c]pyridin-2-yl)imidazo[1,2-b]-pyridazin-6-yl]oxy}butan-2-amine], for which the values for the IC50 at human full-lengt MKNK1 and at human full-length MKNK1 were 34 nM and 62 nM, respectively.

As for `N[C@H]1C[C@H](Oc2ccc3ncc(-c4cc5ccncc5o4)n3n2)C1` [Example 13, trans-3-{[3-(Furo[2,3-c]pyridin-2-yl)imidazo[1,2-b]pyridazin-6-yl]oxy}-cyclobutanamine salt with formic acid], the concentration for half-maximal inhibition (IC50) was found to be 5 nM against human full-lengt MKNK1 and 16 nM against human full-length MKNK1.

As for `COc1nccc2oc(-c3cnc4ccc(OCC(C)CN)nn34)cc12` (stereo not shown) [Example 16, 3-{[3-(4-Methoxyfuro[3,2-c]pyridin-2-yl)imidazo[1,2-b]pyridazin-6-yl]oxy}-2-methylpropan-1-amine], the half-inhibitory concentration (IC50) worked out at 8 nM at human full-lengt MKNK1 and 19 nM against human full-length MKNK1.

Broadly, the IC50 is the concentration needed to halve the response being measured.

These data come from patent publication US9643974B2, “Amino-substituted imidazopyridazines” (Bayer Intellectual Property GmbH, priority 2011, dated 2017).
